Measured values as given in US20140205569A1, “METHODS AND COMPOSITIONS FOR PREVENTING AND TREATING OSTEOARTHRITIS” (priority 2010, published 2014).

Experiments:
canine chondrocytes = experiment: Quantitative PCR expression of osteoarthritis-related genes in fatty-acid-enriched canine chondrocytes in alginate beads, stimulated with SMNCM; type: cell-based; details: fatty acid 50 μM, 3 weeks, 3rd week with 10% SMNCM; normalized to cyclophilin A; N=4
Protocol: Canine cartilage was digested in a 37° C. shaking water bath using the following enzymes: trypsin (0.25%) for 25 minutes, hyaluronidase (150U/ml) for 1 hour, and collagenase (0.78%) overnight. Digested cartilage was filtered to obtain chondrocytes. Chondrocytes were expanded in monolayer culture with complete media. Composition of the complete media is Dulbecco's Modified Eagle Medium (DMEM)/F12 supplemented with 10% FBS, 1% P/S (100 U/mL penicillin and 100 μg/mL streptomycin) and 50 μg/ml ascorbic acid. Reaching subconfluence, chondrocytes were detached with 0.05% trypsin and cryopreserved. After cryopreservation, canine chondrocytes were expanded in a monolayer and, after reaching subconfluence, cells were trypsinized and subsequently immobilized in alginate beads. Cells suspended in complete media +3% alginate were dropped from a 18-gauge syringe into calcium chloride (120 mM) to form “beads.” Chondrocyte beads were cultured in complete media and media was changed every 2 or 3 days. At the end of the treatment, the chondrocyte beads were dissolved in sodium citrate (55 mM in 0.15 M NaCl). Suspensions were centrifuged at 2620 rpm for 5 minutes. Cells were washed with phosphate buffer and centrifuged again at 2620 rpm for 5 minutes. One mL RNAqueous™ lysis binding solution (Ambion, Austin, Tex.) was added to the isolated canine chondrocyte pellet, mixed thoroughly and stored at −80° C. until RNA isolation could be performed.
Samples were vortexed and homogenized using a Quiashredder column (Qiagen, Valencia, Calif.) according to manufacturer's directions. The homogenized lysate was collected and 1 equal volume of 64% ethanol was added to it. This mixture was then applied to an RNAqueous™ filter cartridge, 700 uL at a time, and centrifuged for 1 minute at 10,000 rpm. The cartridge was washed using 700 uL wash solution #1 and 500 uL wash solution #2/3 with centrifugation at 10,000 rpm for 1 minute for each wash. The filter cartridge was dried by centrifugation (10,000 rpm) for 1 minute. RNA was eluted 3 times by centrifugation (as above) using 30 uL aliquots of 95-100° C. elution solution. The resulting RNA was DNAse-treated and quantitated in a Beckman DU 640B spectrophotometer (Beckman Coulter, Inc., Brea, Calif.) at 260 nm. Additionally, quantity and quality were assessed using a bioanalyzer (Agilent, Santa Clara, Calif.) according to manufacturer's directions.
Stimulated monocyte neutrophil conditioned media (SMNCM) was made by isolating monocytes and neutrophils from canine whole blood using NycoPrep™ according to the manufacturer's directions. Monocytes and neutrophils were stimulated with lipopolysaccharide (20 ng/mL) for 72 hours. The resulting supernatant was used as SMNCM in cell culture experimentation (SMNCM made up 10% of media used during experimentation and is kept in frozen aliquots).
Chondrocytes were enriched with a fatty acid at 50 μM just after they were enclosed in beads. FBS and ethanol were used as a vehicle. Once the enriched media were prepared, ethanol represented less than 0.1%. Cells were enriched with either arachidonic acid (AA) and dihomo-γ-linolenic acid for 3 weeks total in complete media. The 3rd week the enriched media also contained 10% stimulated monocyte neutrophil conditioned media (SMNCM). Chondrocyte beads were dissolved at the end of the experiment.
All samples were run singularly against each primer/probe set to determine what standard curve should be used. Standard curves were generated using serial dilutions of liver RNA or RNA from experimental samples. […] Values were normalized to cyclophilin A levels as determined by quantitative PCR. Inductions were calculated from each of the lowest sample's normalized value. N=4 for all treatments.
Values represent relative average induction values. […]

Prostaglandin E2 (PGE2) = experiment: PGE2 levels in chondrocyte media by enzyme immunoassay, per cell; type: cell-based, canine; details: for PGE2 levels from chondrocyte media, Avg / PGE2 levels from chondrocyte media: fatty acid 50 μM; for PGE2 levels from chondrocyte media, Avg: average of four chondrocyte batches
Protocol: Canine cartilage was digested in a 37° C. shaking water bath using the following enzymes: trypsin (0.25%) for 25 minutes, hyaluronidase (150U/ml) for 1 hour, and collagenase (0.78%) overnight. Digested cartilage was filtered to obtain chondrocytes. Chondrocytes were expanded in monolayer culture with complete media. Composition of the complete media is Dulbecco's Modified Eagle Medium (DMEM)/F12 supplemented with 10% FBS, 1% P/S (100 U/mL penicillin and 100 μg/mL streptomycin) and 50 μg/ml ascorbic acid. Reaching subconfluence, chondrocytes were detached with 0.05% trypsin and cryopreserved. After cryopreservation, canine chondrocytes were expanded in a monolayer and, after reaching subconfluence, cells were trypsinized and subsequently immobilized in alginate beads. Cells suspended in complete media +3% alginate were dropped from a 18-gauge syringe into calcium chloride (120 mM) to form “beads.” Chondrocyte beads were cultured in complete media and media was changed every 2 or 3 days. At the end of the treatment, the chondrocyte beads were dissolved in sodium citrate (55 mM in 0.15 M NaCl). Suspensions were centrifuged at 2620 rpm for 5 minutes. Cells were washed with phosphate buffer and centrifuged again at 2620 rpm for 5 minutes. One mL RNAqueous™ lysis binding solution (Ambion, Austin, Tex.) was added to the isolated canine chondrocyte pellet, mixed thoroughly and stored at −80° C. until RNA isolation could be performed. Chondrocytes were enriched with a fatty acid at 50 μM just after they were enclosed in beads. FBS and ethanol were used as a vehicle. Once the enriched media were prepared, ethanol represented less than 0.1%. Cells were enriched with either arachidonic acid (AA) and dihomo-γ-linolenic acid for 3 weeks total in complete media. The 3rd week the enriched media also contained 10% stimulated monocyte neutrophil conditioned media (SMNCM). Chondrocyte beads were dissolved at the end of the experiment. Cell media was aliquoted in micro-centrifuge tubes and stored at −80° C. until analysis. Cells were enriched with either arachidonic acid (AA) and dihomo-γ-linolenic acid. Prostaglandin E2 (PGE2) levels were determined using Amersham Prostaglandin Prostaglandin E2 Biotrak Enzyme Immunoassay (EIA, GE Healthcare). Before performing the assay, media samples were thawed then diluted 50 to 250 times in assay buffer. Standards and samples were run in duplicate. The cell suspensions obtained after dissolving the alginate beads were centrifuged. After removing the supernatant, each cell pellet was resuspended in 1 ml of phosphate buffered saline. From each sample, 10 μL was added to the same volume of trypan blue stain before counting with a hemocytometer.

NF-kB = NF-kB activation measured as SEAP release in HT-29 clone 34 cells with or without rhTNF-alpha; type: cell-based; details: general statement of the discovery
Protocol: HT-29 clone 34 cells were seeded at 2.0×10^5 cells/well in DMEM with 5% FCS and 1% PS. Cells were incubated for 24 hours at 37° C. at 5% CO2 with or without rhTNF-alpha with dihomo-gamma-linolenic acid (0.1, 0.3, 0.5, 0.7 or 1 mg/ml) in ethanol as a vehicle. NF-kB activity was measured as SEAP release using a Phospha-Light™ System (Applied Biosystems, Bedford, Mass.) per manufacturer's directions.

Compound | Quantitative PCR expression value 2252B (relative average induction) (canine chondrocytes) | Quantitative PCR expression value ADAMTS-4 (relative average induction) (canine chondrocytes) | Quantitative PCR expression value ADAMTS-5 (relative average induction) (canine chondrocytes) | Quantitative PCR expression value CYTL-1 (relative average induction) (canine chondrocytes) | Quantitative PCR expression value GRIA-4 (relative average induction) (canine chondrocytes) | Quantitative PCR expression value IGF-2 (relative average induction) (canine chondrocytes) | Quantitative PCR expression value IL-1 (relative average induction) (canine chondrocytes) | Quantitative PCR expression value IL-6 (relative average induction) (canine chondrocytes) | Quantitative PCR expression value IL-8 (relative average induction) (canine chondrocytes) | Quantitative PCR expression value MMP-2 (relative average induction) (canine chondrocytes) | Quantitative PCR expression value MMP-9 (relative average induction) (canine chondrocytes) | Quantitative PCR expression value MMP-13 (relative average induction) (canine chondrocytes) | Quantitative PCR expression value PC-2A (relative average induction) (canine chondrocytes) | Quantitative PCR expression value SOX-9 (relative average induction) (canine chondrocytes) | Quantitative PCR expression value TIMP-1 (relative average induction) (canine chondrocytes) | Quantitative PCR expression value TIMP-2 (relative average induction) (canine chondrocytes) | Quantitative PCR expression value TNF-alpha (relative average induction) (canine chondrocytes) | PGE2 levels from chondrocyte media, Avg (Prostaglandin E2 (PGE2)) [fg/ml/cell] | PGE2 levels from chondrocyte media (Prostaglandin E2 (PGE2); chondrocyte batch 1084) [fg/ml/cell] | PGE2 levels from chondrocyte media (Prostaglandin E2 (PGE2); chondrocyte batch 31010) [fg/ml/cell] | also measured
CCCCC/C=C\C/C=C\C/C=C\C/C=C\CCCC(=O)O [AA, arachidonic acid, reference compound] | 4.3 | 1.4 | 3.0 | 18.1 | 5.0 | 14.7 | 4.1 | 4.8 | 3.0 | 1.8 | 9.5 | 2.7 | 4.5 | 1.9 | 3.5 | 1.6 | 26.4 | 1414 | 957 | 473 | PGE2 levels from chondrocyte media (Prostaglandin E2 (PGE2); chondrocyte batch 31510): 274 fg/ml/cell; PGE2 levels from chondrocyte media (Prostaglandin E2 (PGE2); chondrocyte batch 41210): 3950 fg/ml/cell
CCCCC/C=C\C/C=C\C/C=C\CCCCCCC(=O)O [DGLA, dihomo-γ-linolenic acid] | 4.7 | 1.6 | 2.8 | 18.0 | 4.2 | 15.9 | 2.4 | 3.9 | 3.1 | 1.6 | 22.9 | 2.1 | 5.2 | 1.9 | 3.7 | 1.6 | 18.8 | 598 | 800 | 331 | Effect on NF-kB activation (in words) (NF-kB): inhibit NF-kB activation; PGE2 % Decrease (Prostaglandin E2 (PGE2); 50 μM DGLA versus 50 μM AA, chondrocyte batch 1084): 16%; PGE2 % Decrease (Prostaglandin E2 (PGE2); 50 μM DGLA versus 50 μM AA, chondrocyte batch 31010): 30%; PGE2 % Decrease (Prostaglandin E2 (PGE2); 50 μM DGLA versus 50 μM AA, chondrocyte batch 31510): 34%; PGE2 % Decrease (Prostaglandin E2 (PGE2); 50 μM DGLA versus 50 μM AA, chondrocyte batch 41210): 73%; PGE2 % Decrease, Avg (Prostaglandin E2 (PGE2); 50 μM DGLA versus 50 μM AA, from the batch averages): 58%; PGE2 levels from chondrocyte media (Prostaglandin E2 (PGE2); chondrocyte batch 31510): 182 fg/ml/cell; PGE2 levels from chondrocyte media (Prostaglandin E2 (PGE2); chondrocyte batch 41210): 1080 fg/ml/cell; Effect on inflammatory mediators (in words) (Prostaglandin E2 (PGE2); general statement of the discovery): reduce inflammatory mediators
